Test results taken from US12459997B2, “Compounds and methods targeting interleukin-19” (Eli Lilly and Company, priority 2018, dated 2025).

System: Ps0 patients
Experiment: Ps0 study in anti-TNFα treatment groups: serum IL-19 and PASI
Type: in vivo, human
Conditions: for IL-19 serum levels (geometric mean) / % of patients with serum IL-19 concentration ≤ 21 pg/mL / % patients with serum IL-19 concentration ≤ 21 pg/mL achieving at least PASI 75 / % patients with serum IL-19 concentration ≤ 21 pg/mL not achieving at least PASI 75: 50 mg biweekly subcutaneous
From the text: According to an exemplified embodiment, a sandwich ELISA assay for the sensitive detection of IL-19 is provided herein. According to an exemplified embodiment, a first IL-19 antibody (selected from Table 1, 2 or 3) is utilized as an IL-19 capture antibody and a second IL-19 antibody (selected from Table 1, 2 or 3) is utilized as an IL-19 reporter antibody. […] According to some embodiments, one milligram of the first IL-19 antibody (the capture antibody) is biotinylated using Pierce biotinylation kit (Cat #) and one milligram of the second IL-19 antibody (the reporter antibody) is labeled with ruthenium using MesoScale Discovery (MSD) kit for electrochemiluminescent (ECL) detection. According to such embodiment, labeled antibodies are evaluated using MALDI-TOF to ensure suitable labeling, and then diluted in 50% glycerol and stored at −20° C. prior to use.
Streptavidin-coated 96-well MSD plates are washed three times with TBST (Tris buffered saline containing 10 mmol/L Tris pH 7.40, 150 mmol/L NaCl with 1 mL Tween 20/L) and then blocked with TBS-T plus 1% BSA for 1 hour at room temperature. Plates are again washed and wells are then incubated with biotinylated IL-19 capture antibody (1 mg/L) for 1 hour. Thereafter, plates are again washed prior to patient sample testing.
During patient sample testing, a standard curve is generated using 50 μL of recombinant human IL-19 control standard (serially diluted IL-19 recombinant protein ranging from 100-0.0001 ng/L, and including a zero blank, in assay buffer of 50 mmol/L HEPES, pH 7.40, 150 mmol/L NaCl, 10 mL/L Triton X-100, 5 mmol/L EDTA, and 5 mmol/L EGTA). […] Patient samples (which, according to the present invention, may include blood, serum or plasma) are diluted 1:4 in assay buffer and added to respective wells. The plate is incubated overnight at 4° C. Following incubation, wells are aspirated and washed 3 times with TBST. Thereafter, 50 μL of ruthenium-labeled IL-19 detection antibody (0.5 mg/L) is added to the wells for a 1-hour incubation at room temperature. Following incubation, wells are aspirated and washed 3 times with TBST. Thereafter, 150 μl of 2×MSD read buffer is added. Ruthenium electrochemiluminescence in the wells is detected using a MSD Sector 6000 plate reader. Data is analyzed and IL-19 MSD immunoassay calibration curve fitting is performed using MesoScale Discovery software. SAS® software version 9.4 (PROC MIXED) is used for assessing treatment effects on IL-19 levels using a mixed effects model with an unstructured covariance matrix and log10 transformed IL-19 concentrations (SAS. Version 9.4 for UNIX; SAS Institute Inc.: Cary, N.C., 2016). Statistical analysis is generated with the ggplot and pROC packages using R version 3.3.3 statistical computing environment (www.R-project.org, Vienna, Austria, 2017).
A study of IL-19 levels, in serum of 35 Ps0 patients that were complete responders when treated with the FDA approved TNFα antagonist, entanercept, is performed. Treatment groups of 50 mg of etanercept (n=35) administered biweekly or placebo are compared. Administration of both treatment groups is subcutaneous. […] IL-19 levels are assessed for prognostic value with PASI improvement at weeks 4 and 12. Serum IL-19 concentration levels are presented in Table 11; prognostic values at week 4 showing correlations of IL-19 serum levels and PASI in psoriasis patients (21 ng/L indicates the upper limit of the normal range of IL-19 in healthy subjects) is presented in Table 12; prognostic values at week 12 showing correlations of IL-19 serum levels and PASI in psoriasis patients (21 ng/L indicates the upper limit of the normal range of IL-19 in healthy subjects) is presented in Table 13.

For etanercept, the “IL-19 serum levels (geometric mean)” value (Week 0 (baseline)) was 98.2 pg/mL, the “IL-19 serum levels (geometric mean)” value (Week 1) was 42.3 pg/mL and the “% of patients with serum IL-19 concentration ≤ 21 pg/mL” value (week 4) was 37.9% (44/116). For the same substance, the “% patients with serum IL-19 concentration ≤ 21 pg/mL achieving at least PASI 75” value (week 4) was 22.7% (10/44), the “% patients with serum IL-19 concentration ≤ 21 pg/mL not achieving at least PASI 75” value (week 4) was 77.3% (34/44) and the “IL-19 serum levels (geometric mean)” value (week 4) was 24.3 pg/mL. For the same substance, the “% of patients with serum IL-19 concentration ≤ 21 pg/mL” value (week 12) was 42.9% (69/161), the “% patients with serum IL-19 concentration ≤ 21 pg/mL achieving at least PASI 75” value (week 12) was 49.3% (34/69) and the “% patients with serum IL-19 concentration ≤ 21 pg/mL not achieving at least PASI 75” value (week 12) was 50.7% (35/69). The “IL-19 serum levels (geometric mean)” value (week 12) was 14.2 pg/mL, the “median reduction in serum IL-19” value (after 1 week) was “greater than 40 pg/mL” and the “median reduction in serum IL-19” value (at week 4) was > 70 pg/mL.
